Results from patent publication US20230077362A1 (CORTEVA AGRISCIENCE LLC, priority 2019, published 2023).

What was measured:
[1] = test system: Beet Armyworm (Spodoptera exigua) ("BAW"), second instar larvae; test: Bioassay on beet armyworm (BAW), 128-well diet tray assay; format: in vivo; details: Spodoptera exigua, read-out: BAW rating
Summary of the method: (§1)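 Sealed trays, 25° C., 14:10 light:dark, 5–7 d. Per-well % mortality recorded, mean of eight wells reported.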

[2] = test system: Cabbage Looper (Trichoplusia ni) ("CL"), second instar larvae; test: Bioassay on cabbage looper (CL), 128-well diet tray assay; format: in vivo; details: Trichoplusia ni, read-out: CL rating
Summary of the method: as §1

Structure (SMILES)	pest or weed control at 50 µg/cm2 [1] [%]	pest or weed control at 50 µg/cm2 [2] [%]
CCOC(C)c1ccc(C)cc1N1C(=O)CS/C1=N\C(=O)Nc1ccc(-c2ncn(-c3ccc(S(F)(F)(F)(F)F)cc3)n2)cc1C#N (stereo not drawn) [Compound J586, (Z)-1-(2-Cyano-4-(1-(4-(pentafluoro-λ^6-sulfaneyl)phenyl)-1H-1,2,4-triazol-3-yl)phenyl)-3-(3-(2-(1-ethoxyethyl)-5-methylphenyl)-4-oxothiazolidin-2-ylidene)urea]	50 to 100	50 to 100
Cc1cc(COCC(F)(F)F)c(N2C(=O)CS/C2=N\C(=O)Nc2ccc(-c3ncn(-c4ccc(S(F)(F)(F)(F)F)cc4)n3)cc2C#N)cc1C [Compound J587, (Z)-1-(2-Cyano-4-(1-(4-(pentafluoro-λ^6-sulfaneyl)phenyl)-1H-1,2,4-triazol-3-yl)phenyl)-3-(3-(4,5-dimethyl-2-((2,2,2-trifluoroethoxy)methyl)phenyl)-4-oxothiazolidin-2-ylidene)urea]	50 to 100	50 to 100
COc1cc(COCC(F)(F)F)c(N2C(=O)CS/C2=N\C(=O)Nc2ccc(-c3ncn(-c4ccc(S(F)(F)(F)(F)F)cc4)n3)cc2C#N)cc1OC [Compound J588, (Z)-1-(2-Cyano-4-(1-(4-(pentafluoro-λ^6-sulfaneyl)phenyl)-1H-1,2,4-triazol-3-yl)phenyl)-3-(3-(4,5-dimethoxy-2-((2,2,2-trifluoroethoxy)methyl)phenyl)-4-oxothiazolidin-2-ylidene)urea]	50 to 100	50 to 100
Cc1ccc(C(C)C)c(N2C(=O)CS/C2=N\C(=O)Nc2ccc(-c3cn(-c4ccc(S(F)(F)(F)(F)F)cc4)cn3)cc2F)c1 [Compound J589, (Z)-1-(2-fluoro-4-(1-(4-(pentafluoro-λ^6-sulfaneyl)phenyl)-1H-imidazol-4-yl)phenyl)-3-(3-(2-isopropyl-5-methylphenyl)-4-oxothiazolidin-2-ylidene)urea]	50 to 100	50 to 100
CCCc1ccc(C)cc1N1C(=O)CS/C1=N\C(=O)Nc1ccc(-c2cn(-c3ccc(S(F)(F)(F)(F)F)cc3)cn2)cc1F [Compound J590, (Z)-1-(2-Fluoro-4-(1-(4-(pentafluoro-λ^6-sulfaneyl)phenyl)-1H-imidazol-4-yl)phenyl)-3-(3-(5-methyl-2-propylphenyl)-4-oxothiazolidin-2-ylidene)urea]	50 to 100	50 to 100
COC(C)c1ccc(C)cc1N1C(=O)CS/C1=N\C(=O)Nc1ccc(-c2cn(-c3ccc(S(F)(F)(F)(F)F)cc3)cn2)cc1F (stereo not drawn) [Compound J591, (Z)-1-(2-Fluoro-4-(1-(4-(pentafluoro-λ^6-sulfaneyl)phenyl)-1H-imidazol-4-yl)phenyl)-3-(3-(2-(1-methoxyethyl)-5-methylphenyl)-4-oxothiazolidin-2-ylidene)urea]	50 to 100	50 to 100
COCc1ccc(C)cc1N1C(=O)CS/C1=N\C(=O)Nc1ccc(-c2cn(-c3ccc(S(F)(F)(F)(F)F)cc3)cn2)cc1F [Compound J592, (Z)-1-(2-Fluoro-4-(1-(4-(pentafluoro-λ^6-sulfaneyl)phenyl)-1H-imidazol-4-yl)phenyl)-3-(3-(2-(methoxymethyl)-5-methylphenyl)-4-oxothiazolidin-2-ylidene)urea]	50 to 100	50 to 100
CCOC(C)c1ccc(C)cc1N1C(=O)CS/C1=N\C(=O)Nc1ccc(-c2cn(-c3ccc(S(F)(F)(F)(F)F)cc3)cn2)cc1F (stereo not drawn) [Compound J594, (Z)-1-(3-(2-(1-Ethoxyethyl)-5-methylphenyl)-4-oxothiazolidin-2-ylidene)-3-(2-fluoro-4-(1-(4-(pentafluoro-λ^6-sulfaneyl)phenyl)-1H-imidazol-4-yl)phenyl)urea]	50 to 100	50 to 100
CCCOc1ccc(C)cc1N1C(=O)CS/C1=N\C(=O)Nc1ccc(-c2cn(-c3ccc(S(F)(F)(F)(F)F)cc3)cn2)cc1F [Compound J595, (Z)-1-(2-Fluoro-4-(1-(4-(pentafluoro-λ^6-sulfaneyl)phenyl)-1H-imidazol-4-yl)phenyl)-3-(3-(5-methyl-2-propoxyphenyl)-4-oxothiazolidin-2-ylidene)urea]	50 to 100	50 to 100
Cc1ccc(OCC(F)(F)F)c(N2C(=O)CS/C2=N\C(=O)Nc2ccc(-c3cn(-c4ccc(S(F)(F)(F)(F)F)cc4)cn3)cc2F)c1 [Compound J596, (Z)-1-(2-Fluoro-4-(1-(4-(pentafluoro-λ^6-sulfaneyl)phenyl)-1H-imidazol-4-yl)phenyl)-3-(3-(5-methyl-2-(2,2,2-trifluoroethoxy)phenyl)-4-oxothiazolidin-2-ylidene)urea]	50 to 100	50 to 100
Cc1ccc(OCCC(F)(F)F)c(N2C(=O)CS/C2=N\C(=O)Nc2ccc(-c3cn(-c4ccc(S(F)(F)(F)(F)F)cc4)cn3)cc2F)c1 [Compound J597, (Z)-1-(2-Fluoro-4-(1-(4-(pentafluoro-λ^6-sulfaneyl)phenyl)-1H-imidazol-4-yl)phenyl)-3-(3-(5-methyl-2-(3,3,3-trifluoropropoxy)phenyl)-4-oxothiazolidin-2-ylidene)urea]	50 to 100	50 to 100
Cc1ccc(COCC(F)(F)F)c(N2C(=O)CS/C2=N\C(=O)Nc2ccc(-c3cn(-c4ccc(S(F)(F)(F)(F)F)cc4)cn3)cc2F)c1 [Compound J598, (Z)-1-(2-Fluoro-4-(1-(4-(pentafluoro-λ^6-sulfaneyl)phenyl)-1H-imidazol-4-yl)phenyl)-3-(3-(5-methyl-2-((2,2,2-trifluoroethoxy)methyl)phenyl)-4-oxothiazolidin-2-ylidene)urea]	50 to 100	50 to 100
COC(c1ccc(C)cc1N1C(=O)CS/C1=N\C(=O)Nc1ccc(-c2cn(-c3ccc(S(F)(F)(F)(F)F)cc3)cn2)cc1F)C(F)(F)F (stereo not drawn) [Compound J599, (Z)-1-(2-Fluoro-4-(1-(4-(pentafluoro-λ^6-sulfaneyl)phenyl)-1H-imidazol-4-yl)phenyl)-3-(3-(5-methyl-2-(2,2,2-trifluoro-1-methoxyethyl)phenyl)-4-oxothiazolidin-2-ylidene)urea]	50 to 100	50 to 100
CN(C)c1ccc(C(F)(F)F)c(N2C(=O)CS/C2=N\C(=O)Nc2ccc(-c3cn(-c4ccc(S(F)(F)(F)(F)F)cc4)cn3)cc2F)c1 [Compound J600, (Z)-1-(3-(5-(Dimethylamino)-2-(trifluoromethyl)phenyl)-4-oxothiazolidin-2-ylidene)-3-(2-fluoro-4-(1-(4-(pentafluoro-λ^6-sulfaneyl)phenyl)-1H-imidazol-4-yl)phenyl)urea]	50 to 100	50 to 100
COCc1ccc(N(C)C)cc1N1C(=O)CS/C1=N\C(=O)Nc1ccc(-c2cn(-c3ccc(S(F)(F)(F)(F)F)cc3)cn2)cc1F [Compound J601, (Z)-1-(3-(5-(Dimethylamino)-2-(methoxymethyl)phenyl)-4-oxothiazolidin-2-ylidene)-3-(2-fluoro-4-(1-(4-(pentafluoro-λ^6-sulfaneyl)phenyl)-1H-imidazol-4-yl)phenyl)urea]	50 to 100	50 to 100
CCCc1ccc(N(C)C)cc1N1C(=O)CS/C1=N\C(=O)Nc1ccc(-c2cn(-c3ccc(S(F)(F)(F)(F)F)cc3)cn2)cc1F [Compound J602, (Z)-1-(3-(5-(Dimethylamino)-2-propylphenyl)-4-oxothiazolidin-2-ylidene)-3-(2-fluoro-4-(1-(4-(pentafluoro-λ^6-sulfaneyl)phenyl)-1H-imidazol-4-yl)phenyl)urea]	50 to 100	50 to 100
CC(C)c1ccc(N(C)C)cc1N1C(=O)CS/C1=N\C(=O)Nc1ccc(-c2cn(-c3ccc(S(F)(F)(F)(F)F)cc3)cn2)cc1F [Compound J603, (Z)-1-(3-(5-(Dimethylamino)-2-isopropylphenyl)-4-oxothiazolidin-2-ylidene)-3-(2-fluoro-4-(1-(4-(pentafluoro-λ^6-sulfaneyl)phenyl)-1H-imidazol-4-yl)phenyl)urea]	50 to 100	50 to 100
CC(C)c1cc(F)c(N(C)C)cc1N1C(=O)CS/C1=N\C(=O)Nc1ccc(-c2cn(-c3ccc(S(F)(F)(F)(F)F)cc3)cn2)cc1F [Compound J604, (Z)-1-(3-(5-(Dimethylamino)-4-fluoro-2-isopropylphenyl)-4-oxothiazolidin-2-ylidene)-3-(2-fluoro-4-(1-(4-(pentafluoro-λ^6-sulfaneyl)phenyl)-1H-imidazol-4-yl)phenyl)urea]	50 to 100	50 to 100
CC(C)c1ccc(C#N)cc1N1C(=O)CS/C1=N\C(=O)Nc1ccc(-c2cn(-c3ccc(S(F)(F)(F)(F)F)cc3)cn2)cc1F [Compound J605, (Z)-1-(3-(5-Cyano-2-isopropylphenyl)-4-oxothiazolidin-2-ylidene)-3-(2-fluoro-4-(1-(4-(pentafluoro-λ^6-sulfaneyl)phenyl)-1H-imidazol-4-yl)phenyl)urea]	50 to 100	50 to 100
COC(C)c1ccc(C#N)cc1N1C(=O)CS/C1=N\C(=O)Nc1ccc(-c2cn(-c3ccc(S(F)(F)(F)(F)F)cc3)cn2)cc1F (stereo not drawn) [Compound J606, (Z)-1-(3-(5-Cyano-2-(1-methoxyethyl)phenyl)-4-oxothiazolidin-2-ylidene)-3-(2-fluoro-4-(1-(4-(pentafluoro-λ^6-sulfaneyl)phenyl)-1H-imidazol-4-yl)phenyl)urea]	50 to 100	50 to 100
Cc1ccc(C(C)C)c(N2C(=O)CS/C2=N\C(=O)Nc2ccc(-c3nnc(-c4ccc(OC(F)(F)F)cc4)o3)cc2F)c1 [Compound J607, (Z)-1-(2-fluoro-4-(5-(4-(trifluoromethoxy)phenyl)-1,3,4-oxadiazol-2-yl)phenyl)-3-(3-(2-isopropyl-5-methylphenyl)-4-oxothiazolidin-2-ylidene)urea]	50 to 100	50 to 100
